pIC50: −log10 of the molar value. Where a name gives a salt, the structure may show the parent alone.
Target: T1, human CCR5 (Homo sapiens, UniProt P51681)
T1 construct: expressed in transfected cells; host or cells: CHO-dhfr(-) cells stably transfected with pEF-BOS-bsr/hCCR5
Experiment: Inhibition test on the binding of RANTES to CCR5 (RANTES-induced transient increase of Ca ion)
Type: cell-based
Settings: human CCR5 stably over-expressing CHO cell; recombinant human RANTES 10 nM; intracellular Ca2+ transient increase
Method: (1) Isolation of Human CCR5 Gene
Human placental cDNA was prepared using Marathon cDNA amplification kit (Clontech). PCR primers hCCR5Xbal-F1: 5′-[…]-3′ (SEQ ID NO:1) and hCCR5Xbal-R1: 5′-[…]-3′ (SEQ ID NO:2) were designed based on the sequence of GenBank U54994.
Using the human placental cDNA as the template and using Ex Taq (Takara), PCR reaction (2 minutes at 95° C.→(30 seconds at 95° C., 45 seconds at 60° C., 1 minute at 72° C.)×35 times) was carried out. The thus amplified PCR product was subjected to a 1% agarose gel electrophoresis, purified using QIAquick Gel Extraction Kit (QUIAGEN) and then digested with a restriction enzyme Xbal. The digested fragments were ligated to an expression vector pEF-BOS-bsr using DNA Ligation Kit Ver. […]
The thus established human CCR5 stably over-expressing CHO cell (CCR5/CHO cell) was suspended in Ham's F-12 medium containing FBS (10%) and dispensed in […] portions into a 96 well plate. […] Transient increase in the intracellular Ca^2+ concentration induced by the human RANTES was measured using a Ca^2+ detector for 96 well use (Hamamatsu Photonics), and inhibition ratio (%) of the test compound was calculated by the following calculation formula. Inhibition ratio=(Ec−Ea)/Ec×100 • Ec: measured value of Ca^2+ transient increase by RANTES • Ea: measured value of Ca^2+ transient increase by RANTES when a test compound was added.

T1 sequence (P51681 whole entry): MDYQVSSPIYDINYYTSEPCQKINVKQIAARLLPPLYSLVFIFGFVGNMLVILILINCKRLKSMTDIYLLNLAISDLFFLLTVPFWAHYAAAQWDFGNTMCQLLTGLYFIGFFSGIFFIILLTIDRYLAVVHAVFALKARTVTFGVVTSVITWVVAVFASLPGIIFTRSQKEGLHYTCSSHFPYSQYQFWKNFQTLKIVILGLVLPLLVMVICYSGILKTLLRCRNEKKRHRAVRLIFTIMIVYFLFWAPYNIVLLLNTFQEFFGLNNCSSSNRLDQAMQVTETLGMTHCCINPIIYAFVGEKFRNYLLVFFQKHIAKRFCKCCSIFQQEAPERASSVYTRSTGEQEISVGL

pIC50	Structure (SMILES)
7.57	CCCCN1C(=O)[C@@H]([C@H](O)C(C)C)NC(=O)C12CCN(Cc1ccc(Oc3ccccc3)nc1)CC2 [Example 2, (3R)-1-butyl-2,5-dioxo-3-((1R)-1-hydroxy-2-methylpropyl)-9-(6-phenyloxypyridin-3-ylmethyl)-1,4,9-triazaspiro[5.5]undecane.2hydrochloride]
6.43	CCCCN1C(=O)[C@H]([C@@H](O)C(C)C)NC(=O)C12CCN(Cc1ccc(Oc3ccccc3)nc1)CC2 [Example 3, (3S)-1-butyl-2,5-dioxo-3-((1S)-1-hydroxy-2-methylpropyl)-9-(6-phenyloxypyridin-3-ylmethyl)-1,4,9-triazaspiro[5.5]undecane.2hydrochloride]
